According to patent US20150011501A1, “PARTIALLY DEPOLYMERIZED GLYCOSAMINOGLYCAN SILVER AND GOLD SALTS” (priority 2012, published 2015):

What was measured:
E. Coli = experiment: Test of antimicrobial activity (halo diameter on plate); format: cell-based; parameters: unit not given here; details: chondroitin sulfate products 10% w/v, hyaluronic acid products 1.4% w/v in water
Text: (§1) The objective of the test was to verify the antimicrobial activity with the microorganisms E. Coli and S. Aureus. For this purpose, solutions in water of the following products were separately prepared: • Commercially available sodium chondroitin sulfate of marine origin having a molecular weight between 25,000 and 40,000 Daltons. Product described in European Pharmacopeia (01/2009:2064) (comparative example 10); • High molecular weight silver chondroitin sulfate (comparative example 8); • Partially depolymerized silver chondroitin sulfate (example 1); • High molecular weight silver hyaluronate (comparative example 9); • Partially depolymerized silver hyaluronate (example 2); • AgNO3 (comparative example 11); • Partially depolymerized gold chondroitin sulfate (example 3); • Partially depolymerized gold hyaluronate (example 4); and • Mixture of 1 g of commercially available sodium chondroitin sulfate of marine origin having a molecular weight between 25,000 and 40,000 Daltons and 0.1 g of AgNO3 (comparative example 12).
(§2) The products derived from chondroitin sulfate were dissolved at 10% (weight/volume). The products derived from hyaluronic acid were dissolved at 1.4% (weight/volume). For the rest of products water was added until complete dissolution.
(§3) Each of the products was applied, as well as a control (water), to a plate with S. Aureus and E. Coli. The products were incubated under standard conditions for S. Aureus and E. Coli. The results were expressed in areolar or halo diameter and were the following: for the comparative example 10 it was 0 in E. Coli and 0 in S. Aureus; for the comparative example 8 it was 7 in E. Coli and 8 in S. Aureus; for the example 1 it was 7 in E. Coli and 6 in S. Aureus; for the comparative example 9 it was 8 in E. Coli and 8 in S. Aureus; for the example 2 it was 7 in E. Coli and 6 in S. Aureus; for the comparative example 11 it was 8 in E. Coli and 6 in S. Aureus; for the example 3 it was 9 in E. Coli and 8 in S. Aureus; for the control it was 0 in E. Coli and 0 in S. Aureus; for the example 4 it was 4 in E. Coli and 6 in S. Aureus; and for the comparative example 12 it was 7 in E. Coli and 5 in S. Aureus.

S. Aureus = experiment: as above; format: cell-based; parameters: unit not given here; details: chondroitin sulfate products 10% w/v, hyaluronic acid products 1.4% w/v in water
Text: as §1, §2, §3

[1] = Preliminary test of toxicology (topical): side effects by visual inspection; format: in vivo
Protocol: (§4) The aim of this test was to assess the toxicity (topical) and effectiveness in burns. The side effects that the different products could cause including irritation, inflammation and/or darkening were assessed by visual inspection and photographs. The products assessed were the following: • Commercially available sodium chondroitin sulfate of marine origin having a molecular weight between 25,000 and 40,000 Daltons. Product described in European Pharmacopeia (01/2009:2064) (comparative example 10); • Partially depolymerized silver chondroitin sulfate (example 1); • Partially depolymerized silver chondroitin sulfate dissolved/mixed in a moisturizing cream (example 1c); • Partially depolymerized silver hyaluronate (example 2); • AgNO3 (comparative example 11); and • Partially depolymerized gold chondroitin sulfate (example 3).
(§5) The products derived from chondroitin sulfate were dissolved in water at 10% (weight/volume). The products derived from hyaluronic acid were dissolved at 1.4% (weight/volume). For the silver nitrate water was added until complete dissolution. The product of example 1c was mixed with a moisturizing cream.
All the products were applied in the “upper area of the arm” (upper biceps) and in the abdomen (area of the ribs). The products of examples 1, 2 and 3 were also applied in the “lower area of the arm”. The visual inspections were carried out with the following frequency after the application: 10 minutes, 30 minutes, 60 minutes, 8 h, 3 days, 4 days, 7 days and 9 days.
The treated areas were exposed to different types of light (solar, incandescent bulb, fluorescent) for 10 minutes. Darkening was not observed in any case. The abdomen was protected from the light after 10 minutes. The “upper area of the arm” was left under light exposure up to 8 hours. The “lower area of the arm” had continuous exposure to ambient light.

[2] = Stability test (visual inspection of colour in the dark and under ambient light); format: physicochemical; details: precipitated product
Protocol: After this time, a visual inspection of the products was carried out and the products were protected in the dark again. After 12 hours, another visual inspection of the products was carried out. The products were then exposed to ambient light. After 5 hours, a visual inspection of the products was carried out.

[3] = Viscosity test (dissolution time, appearance, displacement time); format: physicochemical; details: 0.01 g in 0.5 mL water, tube inverted (180° rotation)
Text: The objective of the test was to verify that the viscosity of the partially depolymerized products obtained is lower than the viscosity of the starting products (non-depolymerized). The products assessed were the following: • High molecular weight silver chondroitin sulfate (comparative example 8); • Partially depolymerized silver chondroitin sulfate (example 1); • High molecular weight silver hyaluronate (comparative example 9) and • Partially depolymerized silver hyaluronate (example 2).
The following parameters were assessed: dissolution time, appearance (visual method) and displacement time.
0.01 g of each product was dissolved separately in 0.5 mL of distilled water in test tubes of 11.5 cm of length and 1 cm of diameter. Once the products were completely dissolved, the position of the tubes was inverted to check the displacement time.

[4] = Absorption test on cellulose paper; format: physicochemical
Protocol: A comparative test of the absorption of the depolymerized compounds of the invention and the non-depolymerized compounds was carried out. To do this, partially depolymerized silver chondroitin sulfate (example 1) and high molecular weight silver chondroitin sulfate (comparative example 8) were dissolved separately with water at the same concentration (10% by weight/volume). Once the products were completely dissolved it was noted that the viscosity of the product of example 1 was lower than that of the product of the comparative example 8. 10 mL of each product were applied on cellulose paper.

[5] = Preliminary test of effectiveness in burns; format: in vivo; details: for efficacy in skin surfaces with burns or wounds: overall conclusion
Protocol: as §4, §5
In the application of the product of the comparative example 11 irritation was observed both in the “upper area of the arm” and in the abdomen at 10 minutes and at 30 minutes. […] At this moment, the product of example 1 was applied to the burn of the abdomen. 2 daily applications of the product of example 1 were done to the burn during the next 3 days. […] At this moment, the product of example 2 was applied to the burn of the “upper area of the arm”. 3 daily applications of the product of example 2 were done to the burn.

[6] = Acute oral toxicology test (OECD Guideline No. 420, fixed dose); format: in vivo; parameters: median lethal oral dose (LD50): unit not given here
Protocol: An acute oral toxicology test of partially depolymerized silver chondroitin sulfate (example 1) was carried out to assess the oral toxicity and identify the corresponding classification (GHS, Globally Harmonised Classification System for Chemical Substances and Mixtures). The study was conducted according to the OECD Guideline No. 420 (fixed dose).

[7] = after 5 hours of exposure to ambient light

| Compound | areolar or halo diameter (E. Coli) | areolar or halo diameter (S. Aureus) | color (visual inspection) ([2]; after 1 hour in the dark) | color (visual inspection) [2, 7] | color (visual inspection) ([2]; after 12 hours in the dark) | displacement time [3] [s] | other results |
| --- | --- | --- | --- | --- | --- | --- | --- |
| O=[N+]([O-])[O-].[Ag+] [comparative example 11, AgNO3] | 8 | 6 | – | – | – | – | side effects by visual inspection ([1]; topical, after 8 hours): irritation, itching, burning and a halo or aureole; side effects by visual inspection ([1]; topical, after the third day): increase of the diameter of the aureole of the burn; side effects by visual inspection ([1]; topical, parts where product was applied, after 60 minutes): irritation, itching and burning; side effects by visual inspection ([1]; topical, upper area of the arm and abdomen, at 10 minutes and at 30 minutes): irritation; side effects by visual inspection ([1]; topical, upper area of the arm, after the fourth day): increase of the diameter of the aureole of the burn; side effects by visual inspection ([1]; topical, upper area of the arm, after the seventh day): diameter of the aureole of the burn increased |
| High Molecular Weight Silver Chondroitin Sulfate [comparative example 8] | 7 | 8 | white | dark red | white | 30 | – |
| High Molecular Weight Silver Hyaluronate [comparative example 9] | 8 | 8 | – | – | – | 300 | – |
| Partially Depolymerized Gold Chondroitin Sulfate [example 3] | 9 | 8 | – | – | – | – | problems of darkening, irritation, itching or inflammation ([1]; in vivo): did not have problems of darkening, irritation, itching or inflammation; side effects by visual inspection ([1]; in vivo): no relevant behavior |
| Partially Depolymerized Gold Hyaluronate [example 4] | 4 | 6 | – | – | – | – | – |
| Partially Depolymerized Silver Chondroitin Sulfate (Without Bleaching Step) [comparative example 7] | – | – | white | dark red | white | – | – |
| Partially Depolymerized Silver Chondroitin Sulfate [example 1] | 7 | 6 | white | white | white | 1 | viscosity relative to comparative example 8 ([4]; 10% by weight/volume in water): lower; absorption on cellulose paper relative to comparative example 8 ([4]; 10 mL of 10% w/v solution applied on cellulose paper): absorbed more rapidly; efficacy in skin surfaces with burns or wounds [5]: produce an improvement; burn healing (visual) ([5]; silver nitrate burn of the abdomen, 2 daily applications from third day, observed after the fourth day): nearly full disappearance of the burn; side effects by visual inspection ([1]; topical, all areas applied, all inspections from 10 minutes to 9 days): no relevant behavior; problems of darkening, irritation, itching or inflammation ([1]; topical, overall conclusion, unlike silver nitrate): did not have problems of darkening, irritation, itching or inflammation; GHS classification ([6]; Globally Harmonised Classification System): 5; median lethal oral dose (LD50) ([6]; OECD Guideline No. 420 fixed dose): > 2000 |
| Partially Depolymerized Silver Hyaluronate [example 2] | 7 | 6 | – | – | – | 1 | efficacy in skin surfaces with burns or wounds [5]: produce an improvement; burn healing (visual) ([5]; silver nitrate burn of the upper area of the arm, 3 daily applications from seventh day, observed after the ninth day): almost completely disappeared; problems of darkening, irritation, itching or inflammation ([1]; in vivo): did not have problems of darkening, irritation, itching or inflammation; side effects by visual inspection ([1]; in vivo): no relevant behavior |
| Partially Depolymerized Ssilver Chondroitin Sulfate (Bleaching Agent: Sodium Metabisulfite) [comparative example 5] | – | – | reddish | black | reddish to black | – | – |
| sodium chondroitin sulfate [comparative example 10] | 0 | 0 | – | – | – | – | – |
